The record followed here is patent US20250188080A1, “IMIDAZOLONYLQUINOLINE COMPOUNDS AND THERAPEUTIC USES THEREOF” (Merck Patent GmbH, priority 2019, published 2025).

Assay [1] has as its system pCHK2 (Cellular mechanistic ATM, HCT-116). Put plainly: Cellular pCHK2 assay (bleomycin-induced phospho-Thr68 CHK2). Type of assay: cell-based, human. The source says:
For the identification of substances which inhibit the phosphorylation of the protein kinase CHK2 (checkpoint kinase 2) at the amino acid threonine 68, an immunofluorescence-based “high content” analysis assay was used in HCT116 cells. In vitro cell-based immunofluorescence assay for the identification of inhibitors of bleomycin-induced phosphorylation of CHK2 (phospho-Thr68) in the human colon carcinoma cell line HCT116: HCT116 cells are sown out in a defined cell density in 384-well plates in culture medium (DMEM high glucose, 2 mM GlutaMax, 1 mM Na pyruvate, 10% FCS) and incubated overnight at 37° C. and 10% of CO2. On the following day, the test substances are added in a defined concentration range (1 nM to 30 μM) in combination with 10 μM bleomycin, where the concentration of the solvent DMSO is kept constant at 0.5%. After incubation for four hours at 37° C. and 10% of CO2, the cells are fixed (5 min, 4% formaldehyde in PBS), permeabilised (10 min, 0.2% Triton X-100 in PBS) and, after blocking of nonspecific binding sites (10% goat serum, 1% BSA in PBS), incubated overnight at 4° C. with a specific anti-pCHK2 antibody (cell signaling #2661). pCHK2 (Thr68) is determined using an Alexa488-labelled secondary anti-rabbit IgG antibody. Parallel staining of DNA with propidium iodide enables determination of the cell count. The pCHK2 signal is detected using a high-content imager (Molecular Devices IMX Ultra) and automatic image analysis using the MetaXpress software belonging to the instrument. The number of cell nuclei which have a pCHK2 signal above a defined background is determined.

The next assay concerns the target DNA-PK protein complex (Homo sapiens, UniProt P78527). Put plainly: DNA-PK assay (HTRF). Type of assay: biochemical. On the procedure:
The kinase assay was performed as HTRF® based 384-well assay. In a first step DNA-PK protein complex was incubated with or without test compound for 15 min at 22° C. After addition of the STK-substrate 1-biotin (Cisbio), Mg-ATP, DNA and staurosporine the reaction mixture was incubated for 60-80 min (depending on activity of DNA-PK protein complex) at 22° C. An Echo 555 (Labcyte) was used for dispensing of compound solutions. The assay buffer consisted of 25 mM HEPES PH 7.4, 11 mM MgCl2, 80 mM KCl, 0.45 mM EDTA, and 0.5 mM EGTA, and contained 1 mM dithiothreitol (DTT), 0.17% BSA, and 0.01% Tween® 20. The pharmacologically relevant volume was 5 μl. The final concentrations in the assay during incubation of the reaction mixture were 50-100 ng/well DNA-PK protein complex (depending on activity of DNA-PK protein complex), 1 μM STK-substrate 1-biotin, 10 μM Mg-ATP, 80 ng/well DNA from calf thymus, and 1 μM staurosporine. The enzymatic reaction was stopped by addition of EDTA. The generation of phosphorylated STK-substrate 1-biotin as result of the DNA-PK mediated reaction was detected via a specific anti-phospho STK-antibody (Cisbio) labeled with Europium (Eu) as donor and streptavidin labeled with XL665 (Cisbio) as acceptor allowing FRET. For this purpose, 4 μl of antibody- and streptavidin-containing stop solution (12.5 mM HEPES pH 8.0, 125 mM EDTA, 30 mM sodium chloride, 300 mM potassium fluoride, 0.006% Tween-20, 0.005% Brij® 35, 0.179 nM anti-phospho-STK antibody, 160 nM Streptavidin-XL665) were added to the reaction mixture. Following signal development for 1 h the plates were analyzed on a Rubystar or Pherastar microplate reader (BMG Labtech). The amount of phosphorylated substrate was directly proportional to the ratio of fluorescence units (excitation wavelength 337 nm) at the emission wavelengths 665 nm (Phosphopeptide-sensitive wavelength/emission of XL665) to the units at 620 nm (reference wavelength Europium). IC50-values were calculated using Genedata Screener® software. […]

Assay [2] addresses human phosphodiesterase-2A1 (Homo sapiens, UniProt O00408). Put plainly: PDE2A1 assay (Cerep). The format is biochemical. How it is done: A commercially available assay was used (Cerep, catalog ref. 4071, SOP no 1C1054), which is designed to evaluate the effects of compounds on the activity of the human phosphodiesterase-2A1 quantified by measuring the formation of 5′AMP from cAMP using a human recombinant enzyme expressed in Sf9 cells.
The test compound, reference compound or water (control) are added to a buffer containing 40 mM Tris/HCl (pH 7.4), 8 mM MgCl2 and 1.7 mM EGTA/NaOH, 1.8 μM cAMP and 1 μCi [^3H]cAMP.
Thereafter, the reaction is initiated by addition of the enzyme (about 2.5 U) and the mixture is incubated for 20 min at 22° C.
For basal control measurements, the enzyme is omitted from the reaction mixture.
Following incubation SPA beads are added.
After 30 min at 22° C. under shaking, the amount of [^3H]5′AMP is quantified with a scintillation counter (Topcount, Packard).
The results are expressed as a percent inhibition of the control enzyme activity.
The standard inhibitory reference compound is EHNA (erythro-9-(2-hydroxy-3-nonyl) adenine), which is tested in each experiment at several concentrations to obtain an inhibition curve from which its IC50 value is calculated.

With `COc1cc2ncc3c(c2cc1-c1cn(C)nc1C)n(-c1c(F)cncc1OC)c(=O)n3C` (single isomer, unassigned) [Compound 1, 8-(1,3-Dimethyl-1H-pyrazol-4-yl)-1-(Sa)-(3-fluoro-5-methoxy-pyridin-4-yl)-7-methoxy-3-methyl-1,3-dihydro-imidazo[4,5-c]quinolin-2-one], the IC50 worked out at 13 nM in assay [1] (HCT-116, 10 μM bleomycin); 600 nM against DNA-PK protein complex; 2200 nM in assay [2].

Regarding `COc1cc2ncc3c(c2cc1-c1cn(C)nc1C)n(-c1c(F)cncc1OC)c(=O)n3C` (single isomer, unassigned) [Compound 2, 8-(1,3-Dimethyl-1H-pyrazol-4-yl)-1-(Ra)-(3-fluoro-5-methoxy-pyridin-4-yl)-7-methoxy-3-methyl-1,3-dihydro-imidazo[4,5-c]quinolin-2-one], the IC50 in assay [1] (HCT-116, 10 μM bleomycin) was determined as 76 nM; on DNA-PK protein complex, 1290 nM; in assay [2] it was 3900 nM.

As to `COc1cc2ncc3c(c2cc1-c1cn(C)nc1C)n(-c1c(F)cncc1OC)c(=O)n3C` [Compound Y, 8-(1,3-dimethyl-1H-pyrazol-4-yl)-1-(3-fluoro-5-methoxypyridin-4-yl)-7-methoxy-3-methyl-1,3-dihydroimidazo[4,5-c]quinolin-2-one, reference compound], the IC50 in assay [1] (Homo sapiens, HCT-116, HCT-116, 10 μM bleomycin) turned out to be 86 nM; against DNA-PK protein complex, 980 nM; in assay [2] it was 1400 nM.
